These results are taken from US8623924B2, “Compositions and methods for modulating metabolic pathways” (Nusirt Sciences, Inc., priority 2011, dated 2014).

Data set [1] relates to adipocytes (3T3-L1) and myotubes (C2C12). The data set can be described thus: Fatty acid oxidation screening and dose-response, cell type both or not stated. Type of data set: cell-based. Particulars: for concentrations that exert no effect (dose-response curves; sub-therapeutic dose): highest dose that exerted no effect on fatty acid oxidation; for independent activity in stimulating fatty acid oxidation (dose-response): compound alone; for synergy with HMB or leucine in stimulating fatty acid oxidation: compound at its no-effect concentration with HMB 5 μM or leucine 0.5 mM.

The conditions of data set [2]: in vivo; cited from earlier work.
Data set [3] relates to c2c12 myotubes. The data set can be described thus: Glucose utilization (extracellular acidification) in C2C12 myotubes. The data set is classed as cell-based. The note with it: HMB 5 μM, leucine 0.5 mM, resveratrol 200 nM, other components at their no-effect concentration. As for the experimental part: All compounds were tested for potential to independently or synergistically modulate sirtuin signaling either by direct stimulation or indirect via upstream signaling via AMPK. A key outcome of Sirt1 signaling is stimulation of PGC1-α and subsequent stimulation of mitochondrial biogenesis and fatty acid oxidation. Accordingly, fatty acid oxidation, measured as palmitate-induced oxygen consumption as described below, was utilized as a sensitive first level of screening for aerobic mitochondrial metabolism. A dose-response curve for fatty acid oxidation was established for each compound studied, and a “sub-therapeutic dose” was defined as the highest dose that exerted no effect in this system. […] Following assessment of fatty acid oxidation, Sirt1 activity, AMPK activity, mitochondrial biogenesis and glucose utilization (measured as glucose-induced extracellular acidification in the absence of fatty acids in the media) were assessed for lead combinations and appropriate controls. Glucose Utilization: In the absence of a fatty acid source and oxidative metabolism, glycolysis and subsequent lactate production results in extracellular acidification, which was also measured using a Seahorse Bioscience XF24 analyzer. […] Data for each sample were normalized to the pre-glucose injection baseline for that sample and expressed as % change from that baseline. […]

The next data set addresses T1, SIRT1 (Homo sapiens, UniProt Q96EB6).
T1 construct: purchased ENZO Life Sciences International, Inc. BML-AK555
T1 sequence (Q96EB6 1-747): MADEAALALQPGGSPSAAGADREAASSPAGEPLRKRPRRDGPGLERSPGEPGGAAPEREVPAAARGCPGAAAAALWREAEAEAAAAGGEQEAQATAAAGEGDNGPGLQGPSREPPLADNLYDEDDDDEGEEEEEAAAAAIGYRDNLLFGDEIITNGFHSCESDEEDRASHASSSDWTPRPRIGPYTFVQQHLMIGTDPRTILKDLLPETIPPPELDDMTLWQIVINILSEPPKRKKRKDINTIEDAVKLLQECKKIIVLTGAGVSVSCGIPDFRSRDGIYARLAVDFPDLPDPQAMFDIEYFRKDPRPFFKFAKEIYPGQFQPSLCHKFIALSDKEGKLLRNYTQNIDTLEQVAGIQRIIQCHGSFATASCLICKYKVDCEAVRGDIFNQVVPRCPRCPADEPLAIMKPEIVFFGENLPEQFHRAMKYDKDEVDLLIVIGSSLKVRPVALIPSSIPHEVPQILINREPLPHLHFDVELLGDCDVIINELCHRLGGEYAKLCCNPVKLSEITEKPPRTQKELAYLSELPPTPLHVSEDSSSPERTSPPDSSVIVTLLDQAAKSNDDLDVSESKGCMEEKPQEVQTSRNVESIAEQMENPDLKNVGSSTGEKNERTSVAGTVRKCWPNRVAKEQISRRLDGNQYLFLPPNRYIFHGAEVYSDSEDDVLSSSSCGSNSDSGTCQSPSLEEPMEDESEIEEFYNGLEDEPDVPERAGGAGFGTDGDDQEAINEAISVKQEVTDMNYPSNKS
The experiment in a line: SIRT1 activity, cell-free fluorimetric deacetylation assay. Particulars: cell-free system. Type of data set: biochemical. On the procedure:
SIRT1 activity was measured by using the SIRT1 Fluorimetric Drug Discovery Kit (BML-AK555, ENZO Life Sciences International, Inc. PA, USA). In this assay, SIRT1 activity is assessed by the degree of deacetylation of a standardized substrate containing an acetylated lysine side chain. The substrate utilized is a peptide containing amino acids 379-382 of human p53 (Arg-His-Lys-Lys[Ac]), an established target of SIRT1 activity; SIRT1 activity is directly proportional to the degree of deacetylation of Lys-382. Samples were incubated with peptide substrate (25 μM), and NAD^+ (500 μM) in a phosphate-buffered saline solution at 37° C. on a horizontal shaker for 45 minutes. The reaction was stopped with the addition of 2 mM nicotinamide and a developing solution that binds to the deacetylated lysine to form a fluorophore. Following 10 minutes incubation at 37° C., fluorescence was read in a plate-reading fluorometer at an excitation wavelength of 360 nm and an emission wavelength of 450 nm. […] A standard curve was constructed using deacetylated substrate (0-10 μM).

Data set [4] in a line: Insulin tolerance test in db/db mice. Type of data set: in vivo.
Data set [5] can be described thus: Plasma insulin, glucose and HOMAIR in db/db mice. Type of data set: in vivo.
For data set [6] the following is noted: db/db mice.
A further data set deals with Adipocytes (3T3-L1). The data set can be described thus: Fatty acid oxidation (3H-palmitate) in 3T3-L1 adipocytes. The data set is classed as cell-based. Particulars: high (25 mM) glucose, 4 hours; leucine 0.5 mM, HMB 5 uM, resveratrol 200 nM; vs. control. On the procedure:
High glucose medium reduced fatty acid oxidation by 46% (p<0.05).
Fatty acid oxidation was measured using ^3H-labeled palmitate oxidation, with the ^3H label trapped as water as a result of the fat oxidation. The ^3H was then measured via scintillation counter.

Data set [7] has as its system PGC-1α, NRF-1 and UCP3 genes. The experiment in a line: Expression of mitochondrial regulatory and component genes. The data set is classed as cell-based.
For another data set, the target named is T2, Sirt3 (Mus musculus, UniProt Q8R104).
T2 construct: endogenous in cells; host or cells: 3T3-L1 adipocytes (mitochondrial protein)
T2 sequence (Q8R104 1-334): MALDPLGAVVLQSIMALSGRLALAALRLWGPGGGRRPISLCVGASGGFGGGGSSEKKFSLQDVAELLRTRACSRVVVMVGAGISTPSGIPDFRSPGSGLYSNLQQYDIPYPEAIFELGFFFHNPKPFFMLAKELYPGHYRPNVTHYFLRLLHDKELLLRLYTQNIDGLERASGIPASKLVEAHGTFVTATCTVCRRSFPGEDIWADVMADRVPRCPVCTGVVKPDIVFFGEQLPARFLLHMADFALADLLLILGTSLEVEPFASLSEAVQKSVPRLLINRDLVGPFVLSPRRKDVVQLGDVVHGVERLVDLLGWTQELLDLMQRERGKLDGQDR
The experiment in a line: Sirt3 activity in mitochondrial protein of treated 3T3-L1 adipocytes. The note with it: 4 hours, leucine 0.5 mM, HMB 5 uM, resveratrol 200 nM. The data set is classed as cell-based.

For data set [8], the system named is myotube mitochondrial biogenesis. The experiment in a line: Myotube mitochondrial biogenesis (NAO binding), Example 1. The data set is classed as cell-based. The note with it: assessed fluorometrically via NAO binding. As for the experimental part:
(§1) We next investigated the role of intact leucine (0-0.5 mM) vs. its metabolites, α-ketoisocaproic acid (KIC) (0-0.5 mM) and HMB (0-50 μM). […] Both leucine and HMB increased myotube mitochondrial biogenesis (assessed fluorometrically via NAO binding) by ˜50%, (p<0.005, FIG. 3).

Data set [9] concerns c2c12 myotubes. The data set can be described thus: Fatty acid oxidation (FAO) in c2c12 myotubes, Example 1. The data set is classed as cell-based. Particulars: preserved in presence and absence of 20 nM rapamycin. On the procedure:
We have shown that catabolic systems are also stimulated to fuel this process, resulting in increased mitochondrial biogenesis and fatty acid oxidation (FAO). To address the mechanism of this effect, we first determined its mTOR-dependence by assessing leucine stimulation of FAO in the presence and absence of 20 nM rapamycin; although rapamycin inhibited FAO in c2c12 myotubes, the degree of leucine stimulation was preserved (˜50%, p<0.03; FIG. 1).
as §1

The mark [10] stands for this setting: high dose metformin 300 mg/kg bw.

Entries after “also recorded” stand apart in the source; their conditions may differ. Bounds are passed on as bounds.

For `O=C(O)/C=C/c1ccc(O)c(O)c1` [Caffeic acid], the “concentrations that exert no effect (dose-response curves; sub-therapeutic dose)” value (from here on “concentrations that exert no effect”) in data set [1] is not above 1000 nM.

`Cn1c(=O)c2c(ncn2C)n(C)c1=O` [Caffeine]: the “plasma concentration observed following caffeine consumption” value in data set [2] was 1000 to 10000 nM.

In the case of `O=C(O[C@@H]1Cc2c(O)cc(O)cc2O[C@@H]1c1cc(O)c(O)c(O)c1)c1cc(O)c(O)c(O)c1` [EGCG, epigallocatechin gallate], in data set [1], the “independent activity in stimulating fatty acid oxidation (dose-response)” value is on record as “minimally active” and the “synergy with HMB or leucine in stimulating fatty acid oxidation” value (“synergy with HMB or leucine” below) is “do not detect synergistic effects”. In addition, the “increase in glucose utilization in myotubes (extracellular acidification response to glucose)” value in the data set on c2c12 myotubes [3] is “no independent effect”.

Take `O=c1oc2c(O)c(O)cc3c(=O)oc4c(O)c(O)cc1c4c23` [Ellagic acid]: the “independent activity in stimulating fatty acid oxidation (dose-response)” value in data set [1] was “little activity, even at high concentrations (50 μM)”.

As for `CC(C)CC(=O)C(=O)O` [KIC, α-ketoisocaproic acid], at SIRT1, the SIRT1 activity entry is given as “significantly increased SIRT1 activity”.

For the compound `OC[C@@H](O)[C@@H](O[C@H]1O[C@H](CO)[C@@H](O)[C@H](O)[C@H]1O)[C@H](O)[C@@H](O)CO` [Maltitol, reference compound], in [1], the “synergy with HMB or leucine” value is listed as “no synergy was noted” and the “concentrations that exert no effect” value was not above 100 nM.

Consider `CN(C)C(=N)N=C(N)N` [Metformin], for which the “decrease in blood glucose over the 30 minute linear portion of the insulin response curve” value in [4] (insulin 0.75 U/kg, standard metformin dose, or low / very low metformin blends) is given as approximately 60 mg/dL. Also, the “changes in blood glucose in response to the insulin challenge” value in [4] (low-dose or very low-dose of metformin alone) is reported as “minimal changes”. For the same compound, the “reduction of plasma insulin” value in data set [5] (2 weeks, high dose metformin 300 mg/kg bw (1.5 g/kg diet)) came to 27%. In data set [5] (2 weeks, high dose metformin 300 mg/kg bw, control 62), this compound displayed a plasma insulin of 45 uU/mL. In addition, the “effect on plasma glucose” value in data set [5] (setting [10]) was “no significant effect”. In addition, the “independent effects on any variable studied” value in data set [5] (low dose of metformin (150 mg/kg) and very low dose (50 mg/kg)) is “no significant independent effects”. Further, in data set [6] (setting [10]), the “effects on body composition” value was “no significant effects”. In addition, in data set [6] (metformin at any dosage in the absence of HMB), the “effect on visceral fat mass” value is reported as “not affected”.

For `O[C@H]1[C@H](O)[C@@H](O)[C@H](O)[C@@H](O)[C@H]1O` [Myo-inositol, reference compound], the “synergy with HMB or leucine” value in data set [1] is “no synergy”.

Regarding `OC[C@@H](O)[C@@H](O)[C@H](O)[C@@H](O)CO` [Sorbitol, reference compound], the “synergy with HMB or leucine” value in [1] is recorded as “no synergy”.

Take `Cn1c(=O)c2[nH]cnc2n(C)c1=O` [Theophylline, reference compound]: the “concentrations that exert no effect” value in data set [1] is recorded as “below 1 μM”.

In the case of `CC(C)C[C@H](N)C(=O)O` [leucine], the “increase in fatty acid oxidation, high glucose” value in the data set on Adipocytes (3T3-L1) was 27%. Further, the “expression of mitochondrial regulatory (PGC-1α and NRF-1) and component (UCP3) genes” value in [7] was “stimulated expression”. Also, the “increase in Sirt3 activity” value on Sirt3 was “no significant independent effect; also recorded: no independent effects”. Also, the SIRT1 activity result on SIRT1 is “significantly increased SIRT1 activity”. The “increase in myotube mitochondrial biogenesis” value in data set [8] is listed as approximately 50%. The “leucine stimulation of FAO” value in the data set on c2c12 myotubes [9] is approximately 50%.

Take `CC(C)[C@H](N)C(=O)O` [valine, reference compound]: the SIRT1 activity result on SIRT1 is given as “no significant effect”.

Turning to Fucoxanthin, the “concentrations that exert no effect” value in data set [1] is not above 100 nM.
